Experiment in all cases: NCI anticancer screen, dose series, 48 h
Test [1] has as its system RPMI-8226.
Test [2] deals with SN12C.
Test [3] has as its system M14.
For test [4], the system named is HOP-62.
The test system of test [5] is UACC-62.
In test [6] the test system is K562.
Test [7] deals with CAKI-1.
Test [8] relates to SK-MEL-2.
Test [9] has as its system NCI-H522.
The subject of test [10] is A498.
The subject of test [11] is 786-0.
The subject of test [12] is IGROV-1.
The subject of test [13] is CCRF-CEM.
Test [14] concerns LOX IMVI.
The test system of test [15] is MDA-N.
Test [16] has as its system TK-10.
Test [17] concerns NCI/ADR-RES.
Test [18] concerns BT-549.
Test [19] deals with HCT-116.
Test [20] deals with SF-295.

SMILES strings stand for the structures.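 Interpolation was linear, between the two tested concentrations surrounding the appropriate level; five concentrations were tested over 48 hours in 96-well plates. GI50 is the concentration that inhibits growth by half.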 Active and inactive are the calls of the source. No stated cut-off is given here; in the data, active = GI50 up to about 1.1 µM and inactive = higher. Bounds are passed on as bounds.

For the molecule `Cc1cccc(/C=N/NC(=S)NCc2ccccn2)n1`, the GI50 was 44.6 µM (inactive) in [1]; 30.6 µM (inactive) in test [2]; 18.6 µM (inactive) in test [3]; 22.2 µM (inactive) in test [4]; 17.7 µM (inactive) in test [5]; 36.1 µM (inactive) in [6]. Moreover, the GI50 in test [7] is 26.4 µM (inactive); in [8] it was > 100 µM (inactive); in test [9], 34.3 µM (inactive); in test [10], 49.2 µM (inactive); in test [11], 17.9 µM (inactive); in test [12], 24 µM (inactive). Besides, the GI50 in [13] was 24.2 µM (inactive); in test [14] it was 14.7 µM (inactive); in test [15] it was 47.2 µM (inactive); in test [16], 99.3 µM (inactive); in test [17], 25.2 µM (inactive); in test [18] it was 58.2 µM (inactive). Besides, the GI50 in [19] is 29.4 µM (inactive); in test [20] it was 27.5 µM (inactive).

On to `CC[C@@H]([C@H](O)c1ccccc1Cl)[N+](=O)[O-]`, for which the GI50 in test [1] was 91.8 µM (inactive); in test [2], > 100 µM (inactive); in [3], > 100 µM (inactive); in test [4], 54.6 µM (inactive); in test [5] it was > 100 µM (inactive); in [7], > 100 µM (inactive). For the same molecule, the GI50 in test [8] is > 100 µM (inactive); in test [9], 90.4 µM (inactive); in [10], > 100 µM (inactive); in test [11] it was > 100 µM (inactive); in test [12] it was > 100 µM (inactive); in test [13] it was 19.2 µM (inactive). The GI50 is > 100 µM (inactive) in test [14]; 2.35 µM (inactive) in test [15]; > 100 µM (inactive) in test [16]; > 100 µM (inactive) in [17]; > 100 µM (inactive) in test [18]; 4.25 µM (inactive) in test [19]. Also, the GI50 in [20] was > 100 µM (inactive).

`COc1ccc(C[C@@H]2NC[C@@H](O)[C@@H]2OC(C)=O)cc1`: the GI50 in [1] is 0.0296 µM (active); in test [2], 0.0229 µM (active); in test [3], 0.0185 µM (active); in test [4], 0.0214 µM (active); in test [5], 0.015 µM (active); in [6] it was 0.0104 µM (active). For the same molecule, the GI50 in [7] is 0.0251 µM (active); in test [8], 0.039 µM (active); in test [9], 0.0232 µM (active); in test [10], 0.0157 µM (active); in test [11], 0.0219 µM (active); in test [12], 0.0435 µM (active). For the same molecule, the GI50 was 0.00899 µM (active) in test [13]; 0.00403 µM (active) in [14]; 0.0212 µM (active) in test [15]; 0.0312 µM (active) in test [16]; 0.0001 µM (active) in test [17]; 0.0329 µM (active) in test [18]. The GI50 in test [19] was 0.0103 µM (active); in [20] it was 0.0253 µM (active).

In the case of `Cc1ccc(-c2n[nH]c(=O)n2/N=C\c2ccccc2)cc1`, the GI50 in test [1] is > 86.3 µM (inactive); in [2], 34.5 µM (inactive); in test [3] it was > 93.1 µM (inactive); in test [4] it was 22.6 µM (inactive); in [5], 46.8 µM (inactive); in test [6], > 76.2 µM (inactive). Moreover, the GI50 in test [7] is 57.9 µM (inactive); in test [8], 33.8 µM (inactive); in [9], 33.8 µM (inactive); in test [10], 36.6 µM (inactive); in test [11], 60.3 µM (inactive); in [12], 47.5 µM (inactive). Further, the GI50 in test [13] is > 80.9 µM (inactive); in test [14], > 100 µM (inactive); in test [15], 51.1 µM (inactive); in [16], > 59.2 µM (inactive); in test [17] it was 25.2 µM (inactive); in test [18] it was 10.1 µM (inactive). Moreover, the GI50 in [19] is 37.5 µM (inactive); in test [20], 28.2 µM (inactive).

As for `CC1(F)C=CC(=O)C=C1`, the GI50 in test [1] is 29.4 µM (inactive); in test [2], > 100 µM (inactive); in test [3] it was > 100 µM (inactive); in test [4] it was > 100 µM (inactive); in test [5], 44.9 µM (inactive); in test [6] it was 44 µM (inactive). Also, the GI50 in test [7] is 55.7 µM (inactive); in test [8], > 100 µM (inactive); in test [9], 37.4 µM (inactive); in [10], > 100 µM (inactive); in test [11] it was 17 µM (inactive); in test [13], 47.5 µM (inactive). In addition, the GI50 was 16.3 µM (inactive) in test [14]; 33.2 µM (inactive) in test [15]; 38.9 µM (inactive) in [16]; 17.6 µM (inactive) in [17]; > 100 µM (inactive) in test [18]; 38.4 µM (inactive) in [19]. For the same molecule, the GI50 in test [20] is > 100 µM (inactive).

For `COC(=O)CCC(C)[C@H]1CCC2C3CC[C@@H]4CC5(CC[C@]4(C)C3C[C@H](OC(C)=O)[C@@]21C)OOC1(CCCCC1)OO5` (stereo partly drawn), the GI50 in test [1] was 1.94 µM (inactive); in test [2], > 100 µM (inactive); in test [3] it was 3.33 µM (inactive); in [4], 8.89 µM (inactive); in [5], > 100 µM (inactive); in test [6], 6.01 µM (inactive). For the same molecule, the GI50 in test [7] is 4.03 µM (inactive); in test [8], 5.26 µM (inactive); in test [9] it was 6.01 µM (inactive); in test [10], > 100 µM (inactive); in test [11] it was 12.1 µM (inactive); in test [12], 2.12 µM (inactive). The GI50 was 5.3 µM (inactive) in test [13]; 8.26 µM (inactive) in test [15]; > 100 µM (inactive) in [16]; 81.1 µM (inactive) in test [17]; 27.6 µM (inactive) in [18]; 3.24 µM (inactive) in test [19]. The GI50 in test [20] was 9.4 µM (inactive).

Turning to `CCOC(=O)/C(C#N)=C/c1coc2cc(C)cc(C)c2c1=O`, the GI50 in test [1], in [2], in test [3], in test [4], in test [5] and in [6] was > 100 µM (inactive) each time. The GI50 in [7], in test [9], in [10], in test [11], in [12] and in test [13] was > 100 µM (inactive) throughout. For the same molecule, the GI50 in test [14], in test [15], in [16], in test [17], in [18] and in [19] was > 100 µM (inactive) in each case. In addition, in test [20], the GI50 is 91.6 µM (inactive).

`O=C(c1c(Cl)cc(Cl)cc1Cl)N(Cc1cccnc1)C(=S)N(Cc1cccnc1)C(=O)c1c(Cl)cc(Cl)cc1Cl`: the GI50 in [1] is 1.27 µM (inactive); in test [2] it was 5.68 µM (inactive); in [3] it was 4.82 µM (inactive); in [4], 4.35 µM (inactive); in [5] it was 15.1 µM (inactive); in test [6], 4.32 µM (inactive). The GI50 in test [7] was 5.32 µM (inactive); in test [8] it was 12.5 µM (inactive); in [9], 6.89 µM (inactive); in test [10], 23.8 µM (inactive); in test [11] it was 2.26 µM (inactive); in [13] it was 5.56 µM (inactive). Further, the GI50 was 3.65 µM (inactive) in test [14]; 2.15 µM (inactive) in test [15]; 3.93 µM (inactive) in [16]; 11.4 µM (inactive) in test [17]; 2.98 µM (inactive) in test [18]; 2.91 µM (inactive) in test [19]. Besides, the GI50 in [20] is 19.4 µM (inactive).

With `Cc1cc(C)nc(NS(=O)(=O)c2ccc(Nc3c4ccccc4nc4c(C(=O)NNCCO)cccc34)cc2)n1`, the GI50 in [1] is 15.7 µM (inactive); in [2] it was > 100 µM (inactive); in test [3] it was > 100 µM (inactive); in test [4] it was > 100 µM (inactive); in test [5] it was 13.7 µM (inactive); in test [6] it was 31 µM (inactive). Besides, the GI50 in test [7] is > 100 µM (inactive); in test [8], 58.6 µM (inactive); in test [9], 39.5 µM (inactive); in test [10], > 100 µM (inactive); in [11], > 100 µM (inactive); in test [12], > 100 µM (inactive). Besides, the GI50 in [13] was 21 µM (inactive); in test [14], 34.6 µM (inactive); in test [15], > 100 µM (inactive); in test [16] it was > 100 µM (inactive); in test [17] it was > 100 µM (inactive); in test [18] it was > 100 µM (inactive). Also, the GI50 in [20] is > 100 µM (inactive).

For the molecule `O=C(O)Cc1c(O)ccc2ccccc12`, the GI50 in test [1], in test [2], in test [3], in [4], in [5] and in test [6] was > 100 µM (inactive) each time. In addition, the GI50 in test [7], in [8], in test [9], in test [10], in test [11] and in test [12] was > 100 µM (inactive) each time. The GI50 in test [14], in test [15], in [16], in test [17], in [18] and in test [19] was > 100 µM (inactive) throughout. Also, the GI50 in test [20] is > 100 µM (inactive).

The values above are taken from ChEMBL document CHEMBL1201862, “PubChem BioAssay data set” (2004).
